# Results taken from patent US6770290B1, “Amphotericin B liposome preparation” (priority 1987, dated 2004).
# Tested on: Candida albicans
# Assay: Therapeutic efficacy in C. albicans infected mice
# Type: in vivo
# Details: single dose 3 days post infection; for 29 SURVIVORS (%) / surviving mice at day 29 post infection: n = 8 per group
# Experimental: 360.1 mg of the spray dried powder were hydrated at 65 degrees Centigrade for 40 minutes with 9% lactose containing 10 mM succinate buffer, pH 5.62. Liposomes were prepared by sonication for four minutes with a ½ probe at 65° C. under a nitrogen atmosphere. Three successive batches of liposomes were prepared in a similar fashion. After sterile filtration, the Amphotericin B concentration was determined to be 1.73 mg/ml.
# For therapeutic efficacy studies, groups of 8 mice were given intravenous inoculations of 3.5×10^5 Candida albicans yeast cells. Three days post-infection, animals were treated with a single dose of either free Amphotericin B or liposomal Amphotericin B. A severe systemic infection existed in animals which were not treated until three days post infection. Each successive group was treated with an increasing dose of medicament in order to establish a dose response relationship. Twenty-nine days after infection the study was evaluated for surviving animals. All untreated control animals had died by 8 days post-infection, with a median survival of 7 days. […] In contrast, all animals treated with 10 or 15 mg/kg of liposomal Amphotericin B were still alive […] post infection.
smiles,measurement,setting,value
"C[C@@H]1[C@H](O)[C@@H](C)/C=C/C=C/C=C/C=C/C=C/C=C/C=C/[C@H](O[C@@H]2O[C@H](C)[C@@H](O)[C@H](N)[C@@H]2O)C[C@@H]2O[C@](O)(C[C@@H](O)C[C@@H](O)[C@H](O)CC[C@@H](O)C[C@@H](O)CC(=O)O[C@H]1C)C[C@H](O)[C@H]2C(=O)O [FREE AM B, Amphotericin B]",29 SURVIVORS (%),AMB dose 0.5 mg/kg,(0%)
same,surviving mice at day 29 post infection,AMB dose 0.5 mg/kg,0
same,29 SURVIVORS (%),AMB dose 1.0 mg/kg,(0%)
same,surviving mice at day 29 post infection,AMB dose 1.0 mg/kg,0
same,29 SURVIVORS (%),AMB dose 1.5 mg/kg,(0%)
same,surviving mice at day 29 post infection,AMB dose 1.5 mg/kg,0
same,survivors at 29 days post infection,any dose level,no dose level of free Amphotericin B which produced any survivors
